The source of these data is patent US20230091225A1, “Bifunctional chimeric heterocyclic compounds for targeted degradation of androgen receptors and use thereof” (HINOVA PHARMACEUTICALS INC., priority 2019, published 2023).

The target of the experiment is T1, androgen receptor (AR) (Homo sapiens, UniProt P10275).
T1 sequence (P10275 1-920): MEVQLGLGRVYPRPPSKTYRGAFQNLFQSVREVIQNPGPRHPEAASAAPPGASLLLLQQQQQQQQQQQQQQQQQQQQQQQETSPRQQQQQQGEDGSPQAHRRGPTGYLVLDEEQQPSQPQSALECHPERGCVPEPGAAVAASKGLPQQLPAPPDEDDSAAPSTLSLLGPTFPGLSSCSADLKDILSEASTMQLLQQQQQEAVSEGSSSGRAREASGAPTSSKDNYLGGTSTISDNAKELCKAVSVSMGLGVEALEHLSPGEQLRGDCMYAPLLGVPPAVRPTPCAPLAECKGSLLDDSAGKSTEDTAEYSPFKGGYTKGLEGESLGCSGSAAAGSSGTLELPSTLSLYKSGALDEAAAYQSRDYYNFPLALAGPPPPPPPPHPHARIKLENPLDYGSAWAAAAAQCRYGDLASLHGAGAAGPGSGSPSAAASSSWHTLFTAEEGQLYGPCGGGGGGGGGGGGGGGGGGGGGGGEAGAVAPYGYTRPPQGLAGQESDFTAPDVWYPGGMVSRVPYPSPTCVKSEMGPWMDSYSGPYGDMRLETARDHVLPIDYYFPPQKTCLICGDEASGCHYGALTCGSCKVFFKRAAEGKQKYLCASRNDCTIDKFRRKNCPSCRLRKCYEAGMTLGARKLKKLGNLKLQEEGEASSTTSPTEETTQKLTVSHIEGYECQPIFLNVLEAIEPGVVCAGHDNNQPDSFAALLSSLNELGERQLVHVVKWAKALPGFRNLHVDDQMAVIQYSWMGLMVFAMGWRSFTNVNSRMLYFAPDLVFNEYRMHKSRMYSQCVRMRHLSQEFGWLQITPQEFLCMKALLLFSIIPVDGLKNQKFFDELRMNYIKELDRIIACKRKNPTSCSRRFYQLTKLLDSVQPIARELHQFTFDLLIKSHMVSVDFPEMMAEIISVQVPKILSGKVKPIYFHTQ
As to the kind of experiment: Degradation of androgen receptor (AR) protein in VCaP cells by Western blot. The experiment is classed as cell-based. To be noted: percentage of degraded AR at 100 nM, VCaP cells, 16 h. In a few lines:
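AR and β-actin levels were read by Western blot with ECL detection, loading 30 μg lysate protein per well. Before lysis, VCaP cells seeded at 5×10^5/well and grown overnight were exposed to compound for 16 h, two wells per concentration, keeping DMSO at 0.1%.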

By inhibition is commonly meant how much of the control response was suppressed. Turning to `N#Cc1ccc(O[C@H]2CC[C@H](NC(=O)c3ccc(N4CC5(CCN(CC6CCN(c7cc8c(cc7F)C(=O)N(C7CCC(=O)NC7=O)C8=O)CC6)CC5)C4)nn3)CC2)cc1Cl` (some centres unmarked) [Compound 232], the inhibition at 0.1 µM is more than 80%. Compound `N#Cc1ccc(O[C@H]2CC[C@H](NC(=O)c3ccc(N4CCC(CN5CC6CN(c7ccc8c(c7)C(=O)N(C7CCC(=O)NC7=O)C8=O)CC6C5)CC4)nn3)CC2)cc1Cl` (some centres unmarked) [Compound 252, N-((1r,4r)-4-(3-chloro-4-cyanophenoxy)cyclohexyl)-6-(4-((5-(2-(2,6-dioxopiperidin-3-yl)-1,3-dioxoisoindolin-5-yl)Hexahydropyrrolo[3,4-c]pyrrol-2(11H)-yl)methyl)piperidin-1-yl)pyridazine-3-formamide] came in with an inhibition at 0.1 µM of 25 to 49%.

Compound `N#Cc1ccc(O[C@H]2CC[C@H](NC(=O)c3ccc(N4CCC(CN5CC6CN(c7cc8c(cc7F)C(=O)N(C7CCC(=O)NC7=O)C8=O)CC6C5)CC4)nn3)CC2)cc1Cl` (some centres unmarked) [Compound 253, N-((1r,4r)-4-(3-chloro-4-cyanophenoxy)cyclohexyl)-6-(4-((5-(2-(2,6-dioxopiperidin-3-yl)-6-fluoro-1,3-dioxoisoindolin-5-yl)Hexahydropyrrolo[3,4-c]pyrrol-2(1H)-yl)methyl)piperidin-1-yl)pyridazine-3-formamide] gave an inhibition at 0.1 µM of 50 to 79%. Still for that read-out and setting: the result for `N#Cc1ccc(O[C@H]2CC[C@H](NC(=O)c3cnc(N4CCC(CN5CC6CN(c7ccc8c(c7)C(=O)N(C7CCC(=O)NC7=O)C8=O)CC6C5)CC4)cn3)CC2)cc1Cl` (some centres unmarked) [Compound 254, N-((1r,4r)-4-(3-chloro-4-cyanophenoxy)cyclohexyl)-5-(4-((5-(2-(2,6-dioxopiperidin-3-yl)-1,3-dioxoisoindolin-5-yl)Hexahydropyrrolo[3,4-c]pyrrol-2(11H)-yl)methyl)piperidin-1-yl)pyrazine-2-carboxamide] reads 50 to 79%; that for `N#Cc1ccc(O[C@H]2CC[C@H](NC(=O)c3cnc(N4CCC(CN5CC6CN(c7cc8c(cc7F)C(=O)N(C7CCC(=O)NC7=O)C8=O)CC6C5)CC4)cn3)CC2)cc1Cl` (some centres unmarked) [Compound 255, N-((1r,4r)-4-(3-chloro-4-cyanophenoxy)cyclohexyl)-5-(4-((5-(2-(2,6-dioxopiperidin-3-yl)-6-fluoro-1,3-dioxoisoindolin-5-yl)Hexahydropyrrolo[3,4-c]pyrrol-2(1H)-yl)methyl)piperidin-1-yl)pyrazine-2-carboxamide], 50 to 79%; that for `N#Cc1ccc(O[C@H]2CC[C@H](NC(=O)c3cnc(N4CCC(CN5CC6CN(c7ccc8c(c7)C(=O)N(C7CCC(=O)NC7=O)C8=O)CC6C5)CC4)nc3)CC2)cc1Cl` (some centres unmarked) [Compound 256, N-((1r,4r)-4-(3-chloro-4-cyanophenoxy)cyclohexyl)-2-(4-((5-(2-(2,6-dioxopiperidin-3-yl)-1,3-dioxoisoindolin-5-yl)Hexahydropyrrolo[3,4-c]pyrrol-2(11H)-yl)methyl)piperidin-1-yl)pyrimidine-5-carboxamide], 25 to 49%. Same read-out and setting: as for `N#Cc1ccc(O[C@H]2CC[C@H](NC(=O)c3cnc(N4CCC(CN5CC6CN(c7cc8c(cc7F)C(=O)N(C7CCC(=O)NC7=O)C8=O)CC6C5)CC4)nc3)CC2)cc1Cl` (some centres unmarked) [Compound 257, N-((1r,4r)-4-(3-chloro-4-cyanophenoxy)cyclohexyl)-2-(4-((5-(2-(2,6-dioxopiperidin-3-yl)-6-fluoro-1,3-dioxoisoindolin-5-yl)Hexahydropyrrolo[3,4-c]pyrrol-2(1H)-yl)methyl)piperidin-1-yl)pyrimidine-5-carboxamide], the figure is 25 to 49%; as for `N#Cc1ccc(O[C@H]2CC[C@H](NC(=O)c3ccc(N4CC5CN(CC6CCN(c7cc8c(cc7F)C(=O)N(C7CCC(=O)NC7=O)C8=O)CC6)CC5C4)nn3)CC2)cc1Cl` (some centres unmarked) [Compound 259, N-((1r,4r)-4-(3-chloro-4-cyanophenoxy)cyclohexyl)-6-(5-((1-(2-(2,6-dioxopiperidin-3-yl)-6-fluoro-1,3-dioxoisoindolin-5-yl)piperidine-4-yl)methyl)hexahydropyrrolo[3,4-c]pyrrol-2(11H)-yl)pyridazine-3-carboxamide], more than 80%; as for `N#Cc1ccc(O[C@H]2CC[C@H](NC(=O)c3ccc(N4CC5CN(CC6CCN(c7ccc8c(c7)C(=O)N(C7CCC(=O)NC7=O)C8=O)CC6)CC5C4)nn3)CC2)cc1Cl` (some centres unmarked) [Compound 260, N-((1r,4r)-4-(3-chloro-4-cyanophenoxy)cyclohexyl)-6-(5-((1-(2-(2,6-dioxopiperidin-3-yl)-1,3-dioxoisoindolin-5-yl)piperidine-4-yl)methyl)hexahydropyrrolo[3,4-c]pyrrol-2(1Ji)-yl)pyridazine-3-carboxamide], more than 80%. Compound `N#Cc1ccc(O[C@H]2CC[C@H](NC(=O)c3cnc(N4CCC5(CC4)CN(C4CCN(c6cc7c(cc6F)C(=O)N(C6CCC(=O)NC6=O)C7=O)CC4)C5)cn3)CC2)cc1Cl` (some centres unmarked) [Compound 289] came in with an inhibition at 0.1 µM of more than 80%.

As to `N#Cc1ccc(O[C@H]2CC[C@H](NC(=O)c3ccc(N4CCN(C(=O)O[C@H]5C[C@@H]6CN(c7cc8c(cc7F)C(=O)N(C7CCC(=O)NC7=O)C8=O)C[C@@H]6C5)CC4)nn3)CC2)cc1Cl` (some centres unmarked) [Compound 290], the inhibition at 0.1 µM lay within 50 to 79%. In turn, `CC1(C)[C@H](NC(=O)c2ccc(N3CCC(NC4CCN(c5cc6c(cc5F)C(=O)N(C5CCC(=O)NC5=O)C6=O)CC4)CC3)nn2)C(C)(C)[C@H]1Oc1ccc(C#N)c(Cl)c1` (some centres unmarked) [Compound 291, N-((1r,3r)-3-(3-chloro-4-cyanophenoxy)-2,2,4,4-tetramethylcyclobutyl)-6-(4-((1-(2-(2,6-dioxopiperidin-3-yl)-6-fluoro-1,3-dioxoisoindoline)piperidine-4-yl)amino)piperidin-1-yl)pyridazine-3-formamide] gave an inhibition at 0.1 µM of 50 to 79%. Turning to `N#Cc1ccc(OC2CCC(NC(=O)c3ccc(N4C[C@H]5CC(N6CCN(c7cc8c(cc7F)C(=O)N(C7CCC(=O)NC7=O)C8=O)CC6)C[C@H]5C4)nn3)CC2)cc1Cl` (stereo partly drawn) [Compound 292, N-((1s,4S)-4-(3-chloro-4-cyanophenoxy)cyclohexyl)-6-((3aR,5R,6aS)-5-(4-(2-(2,6-dioxopiperidin-3-yl)-6-fluoro-1,3-dioxoisoindolin-5-yl)piperazin-1-yl)hexahydrocyclopenta[c]pyrrole-2(1H)-yl)pyridazine-3-formamide], the “% degradation” value is “D (<25%)”. The compound `N#Cc1ccc(O[C@H]2CC[C@H](NC(=O)c3cnc(N4C[C@H]5C[C@@H](N6CCN(c7cc8c(cc7F)C(=O)N(C7CCC(=O)NC7=O)C8=O)CC6)C[C@H]5C4)cn3)CC2)cc1Cl` (stereo partly drawn) [Compound 293, N-((1r,4r)-4-(3-chloro-4-cyanophenoxy)cyclohexyl)-5-((3aR,5R,6aS)-5-(4-(2-(2,6-dioxopiperidin-3-yl)-6-fluoro-1,3-dioxoisoindolin-5-yl)piperazin-1-yl)hexahydrocyclopenta[c]pyrrole-2(1H)-yl)pyrazine-2-carboxamide] yielded an inhibition at 0.1 µM of 50 to 79%.

Consider `N#Cc1ccc(OC2CCC(NC(=O)c3ncc(N4C[C@H]5CC(N6CCN(c7cc8c(cc7F)C(=O)N(C7CCC(=O)NC7=O)C8=O)CC6)C[C@H]5C4)cn3)CC2)cc1Cl` (stereo partly drawn) [Compound 294, N-((1r,4r)-4-(3-chloro-4-cyanophenoxy)cyclohexyl)-5-((3aR,5R,6aS)-5-(4-(2-(2,6-dioxopiperidin-3-yl)-6-fluoro-1,3-dioxoisoindolin-5-yl)piperazin-1-yl)hexahydrocyclopenta[c]pyrrole-2(1H)-yl)pyrimidine-2-carboxamide], for which the “% degradation” value was “C (49%-25%)”. Still for that read-out and setting: as for `N#Cc1ccc(O[C@H]2CC[C@@H](NC(=O)c3cnc(N4CCN([C@@H]5C[C@@H]6CN(c7cc8c(cc7F)C(=O)N(C7CCC(=O)NC7=O)C8=O)C[C@@H]6C5)CC4)cn3)CC2)cc1Cl` (stereo partly drawn) [Compound 295, N-((1s,4s)-4-(3-chloro-4-cyanophenoxy)cyclohexyl)-5-(4-((3aR,5R,6aS)-2-(2-(2,6-dioxopiperidin-3-yl)-6-fluoro-1,3-dioxoisoindolin-5-yl)octahydrocyclopenta[c]pyrrol-5-yl)piperazin-1-yl)pyrazine-2-carboxamide], the entry is “C (49%-25%)”. `N#Cc1ccc(O[C@H]2CC[C@H](NC(=O)c3cnc(N4CCN([C@@H]5C[C@@H]6CN(c7ccc8c(c7)C(=O)N(C7CCC(=O)NC7=O)C8=O)C[C@@H]6C5)CC4)cn3)CC2)cc1Cl` (stereo partly drawn) [Compound 296, N-((1r,4r)-4-(3-chloro-4-cyanophenoxy)cyclohexyl)-5-(4-((3aR,5R,6aS)-2-(2-(2,6-dioxopiperidin-3-yl)-1,3-dioxoisoindol-5-yl)octahydrocyclopenta [c]pyrrol-5-yl)piperazin-1-yl)pyrazine-2-carboxamide]: the inhibition at 0.1 µM was less than 25%.
